# Results from BindingDB's records for doi:10.1016/s0960-894x(01)00397-3 (Glaxosmithkline, 2001).
# Biological target: C-C chemokine receptor type 2 (Homo sapiens, UniProt P41597)
# Assay: Inhibition of [125I]MCP-1 binding to the cloned C-C chemokine receptor type 2B expressed in CHO cells
# C-C chemokine receptor type 2, sequence (P41597 whole entry): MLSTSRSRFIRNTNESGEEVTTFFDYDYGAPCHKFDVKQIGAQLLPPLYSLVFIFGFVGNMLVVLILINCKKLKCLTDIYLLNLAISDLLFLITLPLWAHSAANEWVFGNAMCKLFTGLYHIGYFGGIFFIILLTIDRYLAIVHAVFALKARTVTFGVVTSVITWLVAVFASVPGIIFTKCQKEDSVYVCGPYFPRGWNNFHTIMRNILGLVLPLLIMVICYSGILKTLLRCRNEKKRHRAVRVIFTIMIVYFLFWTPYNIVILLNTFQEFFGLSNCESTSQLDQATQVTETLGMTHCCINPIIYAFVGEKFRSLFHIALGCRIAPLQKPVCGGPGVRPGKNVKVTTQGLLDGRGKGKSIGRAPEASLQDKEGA
compound,measurement,value
"O=C(/C=C/c1ccc(Cl)c(Cl)c1)N[C@H]1CC[C@H](CN2CCC(c3c[nH]c4ccc(O)cc34)CC2)CC1 [3-(3,4-dichlorophenyl)-N-((1r,4r)-4-((4-(5-hydroxy-1H-indol-3-yl)piperidin-1-yl)methyl)cyclohexyl)acrylamide]",Ki,316 nM
